Measured values as given in PubChem BioAssay (NCI).
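Each compound was tested at five concentrations against cells in 96-well plates for 48 hours. TGI marks complete inhibition of growth.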

Assays:
Experiment in all cases: NCI-60 cell line screen, 48 h
NCI-H23 lung = system: NCI-H23 lung
OVCAR-3 ovarian = system: OVCAR-3 ovarian
HCT-15 colon = system: HCT-15 colon
SK-MEL-5 melanoma = system: SK-MEL-5 melanoma
M19-MEL melanoma = system: M19-MEL melanoma
M14 melanoma = system: M14 melanoma
MOLT-4 leukemia = system: MOLT-4 leukemia
HOP-62 NSCLC = system: HOP-62 NSCLC
SNB-75 CNS = system: SNB-75 CNS
SW-620 colon = system: SW-620 colon
NCI-H226 lung = system: NCI-H226 lung
COLO 205 colon = system: COLO 205 colon
A498 renal = system: A498 renal
HCT-116 colon = system: HCT-116 colon
CAKI-1 renal = system: CAKI-1 renal
HCC-2998 colon = system: HCC-2998 colon
RXF 393 renal = system: RXF 393 renal
MALME-3M melanoma = system: MALME-3M melanoma
UO-31 renal = system: UO-31 renal
SF-268 CNS = system: SF-268 CNS
IGROV1 ovarian = system: IGROV1 ovarian
HOP-18 NSCLC = system: HOP-18 NSCLC
EKVX NSCLC = system: EKVX NSCLC
U251 CNS = system: U251 CNS
SF-539 CNS = system: SF-539 CNS
ACHN renal = system: ACHN renal
SK-MEL-2 melanoma = system: SK-MEL-2 melanoma
SN12C renal = system: SN12C renal
HOP-92 NSCLC = system: HOP-92 NSCLC
OVCAR-8 ovarian = system: OVCAR-8 ovarian
SK-MEL-28 melanoma = system: SK-MEL-28 melanoma
SF-295 CNS = system: SF-295 CNS
DMS 273 small cell lung = system: DMS 273 small cell lung
OVCAR-4 ovarian = system: OVCAR-4 ovarian
OVCAR-5 ovarian = system: OVCAR-5 ovarian
NCI-H522 lung = system: NCI-H522 lung
NCI-H460 lung = system: NCI-H460 lung
LOX IMVI melanoma = system: LOX IMVI melanoma
LXFL 529 NSCLC = system: LXFL 529 NSCLC
786-0 renal = system: 786-0 renal
A549 NSCLC = system: A549 NSCLC
SNB-78 CNS = system: SNB-78 CNS
UACC-62 melanoma = system: UACC-62 melanoma
TK-10 renal = system: TK-10 renal
HL-60(TB) leukemia = system: HL-60(TB) leukemia
SK-OV-3 ovarian = system: SK-OV-3 ovarian
HT29 colon = system: HT29 colon
RXF-631 renal = system: RXF-631 renal
UACC-257 melanoma = system: UACC-257 melanoma
DLD-1 colon = system: DLD-1 colon
RPMI-8226 leukemia = system: RPMI-8226 leukemia
KM20L2 colon = system: KM20L2 colon
K-562 leukemia = system: K-562 leukemia
CCRF-CEM leukemia = system: CCRF-CEM leukemia
DMS 114 small cell lung = system: DMS 114 small cell lung
KM12 colon = system: KM12 colon

Measured: TGI

c1ccc(-c2[o+]c(-c3ccccc3)c(-c3ccccc3)c(-c3ccccc3)c2-c2ccccc2)cc1
not listed: K-562 leukemia | CCRF-CEM leukemia | DMS 114 small cell lung | KM12 colon
> 100 µM: all other assays above

COC12OCCN(CCO)C1=CC(=O)C1(C)N=NC(C)C12 (stereo unspecified)
not listed: HOP-62 NSCLC | SF-268 CNS | SK-MEL-2 melanoma | OVCAR-4 ovarian | OVCAR-5 ovarian | HL-60(TB) leukemia | KM20L2 colon
> 100 µM: all other assays above
